Where “and” joins values, the source holds several entries; their conditions need not be identical. Equal entries are not always repeated.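 Values below derive from 48-hour exposures of cells grown in 96-well plates, with endpoints linearly interpolated between the two concentrations bracketing the appropriate inhibition level. GI50 is the concentration that inhibits growth by half. At the TGI there is no net growth.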
What was measured:
Assay in all cases: NCI tumour cell line growth inhibition, 48 h
[1] = system: 786-0 renal
[2] = system: A498 renal
[3] = system: A549 NSCLC
[4] = system: ACHN renal
[5] = system: CAKI-1 renal
[6] = system: CCRF-CEM leukemia
[7] = system: COLO 205 colon
[8] = system: DLD-1 colon
[9] = system: DMS 114 small cell lung
[10] = system: DMS 273 small cell lung
[11] = system: EKVX NSCLC
[12] = system: HCT-116 colon
[13] = system: HCT-15 colon
[14] = system: HL-60(TB) leukemia
[15] = system: HOP-18 NSCLC
[16] = system: HOP-62 NSCLC
[17] = system: HOP-92 NSCLC
[18] = system: HT29 colon
[19] = system: IGROV1 ovarian
[20] = system: K-562 leukemia
[21] = system: KM12 colon
[22] = system: KM20L2 colon
[23] = system: LXFL 529 NSCLC
[24] = system: M14 melanoma
[25] = system: M19-MEL melanoma
[26] = system: MALME-3M melanoma
[27] = system: MOLT-4 leukemia
[28] = system: NCI-H226 lung
[29] = system: NCI-H23 lung
[30] = system: NCI-H460 lung
[31] = system: NCI-H522 lung
[32] = system: OVCAR-3 ovarian
[33] = system: OVCAR-4 ovarian
[34] = system: OVCAR-5 ovarian
[35] = system: OVCAR-8 ovarian
[36] = system: RPMI-8226 leukemia
[37] = system: RXF-631 renal
[38] = system: SF-268 CNS
[39] = system: SF-295 CNS
[40] = system: SF-539 CNS
[41] = system: SK-MEL-2 melanoma
[42] = system: SK-MEL-28 melanoma
[43] = system: SK-MEL-5 melanoma
[44] = system: SK-OV-3 ovarian
[45] = system: SN12C renal
[46] = system: SNB-19 CNS
[47] = system: SNB-75 CNS
[48] = system: SNB-78 CNS
[49] = system: SR leukemia
[50] = system: SW-620 colon
[51] = system: TK-10 renal
[52] = system: U251 CNS
[53] = system: UACC-257 melanoma
[54] = system: UACC-62 melanoma
[55] = system: UO-31 renal
[56] = system: XF 498 CNS
[57] = system: HCC-2998 colon
[58] = system: LOX IMVI melanoma
[59] = system: MCF7 breast
[60] = system: NCI/ADR-RES ovarian
[61] = system: P388 leukemia
[62] = system: P388/ADR leukemia
[63] = system: RXF 393 renal
[64] = system: SN12K1 renal

SMILES: O=C(CCc1nc(=S)[nH][nH]1)Nc1ccc(Cl)c(Cl)c1
- TGI [1]: > 100 µM
- TGI [2]: > 100 µM
- TGI [3]: > 100 µM
- TGI [4]: > 100 µM
- TGI [5]: > 100 µM
- TGI [6]: > 100 µM
- TGI [7]: > 100 µM
- TGI [8]: > 100 µM
- TGI [9]: > 100 µM
- TGI [10]: > 100 µM
- TGI [11]: > 100 µM
- TGI [12]: > 100 µM
- TGI [13]: 65.6 µM
- TGI [14]: > 100 µM
- TGI [15]: > 100 µM
- TGI [16]: > 100 µM
- TGI [17]: > 100 µM
- TGI [18]: > 100 µM
- TGI [19]: > 100 µM
- TGI [20]: > 100 µM
- TGI [21]: > 100 µM
- TGI [22]: 31.6 µM
- TGI [23]: > 100 µM
- TGI [24]: > 100 µM
- TGI [25]: > 100 µM
- TGI [26]: > 100 µM
- TGI [27]: > 100 µM
- TGI [28]: > 100 µM
- TGI [29]: > 100 µM
- TGI [30]: > 100 µM
- TGI [31]: 72.1 µM
- TGI [32]: > 100 µM
- TGI [33]: > 100 µM
- TGI [34]: > 100 µM
- TGI [35]: > 100 µM
- TGI [36]: > 100 µM
- TGI [37]: > 100 µM
- TGI [38]: > 100 µM
- TGI [39]: > 100 µM
- TGI [40]: > 100 µM
- TGI [41]: 31.2 µM
- TGI [42]: > 100 µM
- TGI [43]: 55.9 µM
- TGI [44]: > 100 µM
- TGI [45]: > 100 µM
- TGI [46]: > 100 µM
- TGI [47]: 75.5 µM
- TGI [48]: > 100 µM
- TGI [49]: > 100 µM
- TGI [50]: > 100 µM
- TGI [51]: > 100 µM
- TGI [52]: > 100 µM
- TGI [53]: > 100 µM
- TGI [54]: 22 µM
- TGI [55]: > 100 µM
- TGI [56]: > 100 µM

SMILES: O=C(CCN1CCCCC1)C(=Cc1ccccc1)C(=O)CCN1CCCCC1
- TGI [2]: > 100 µM
- TGI [3]: > 100 µM
- GI50 [5]: 80.4 µM
- TGI [5]: > 100 µM
- GI50 [6]: 2.44 µM
- TGI [6]: 7.36 µM and 51.2 µM
- GI50 [7]: 2.62 µM
- TGI [7]: > 76.4 µM
- TGI [8]: 44.5 µM
- GI50 [9]: 38.7 µM
- GI50 [10]: 7.61 µM
- TGI [10]: > 100 µM
- TGI [11]: > 100 µM
- TGI [57]: > 100 µM
- TGI [12]: > 100 µM
- GI50 [13]: 3.07 µM
- GI50 [14]: 2.2 µM
- TGI [14]: 6.05 µM and 48 µM
- GI50 [15]: > 100 µM
- TGI [15]: > 100 µM
- TGI [16]: > 100 µM
- TGI [17]: > 96.8 µM
- GI50 [18]: 76.3 µM
- TGI [18]: > 100 µM
- TGI [19]: > 100 µM
- GI50 [20]: 3.46 µM
- TGI [20]: > 55.2 µM
- TGI [21]: > 100 µM
- TGI [22]: > 100 µM
- GI50 [58]: 3.39 µM
- TGI [58]: > 100 µM
- TGI [25]: > 100 µM
- TGI [59]: > 100 µM
- GI50 [27]: 4.32 µM
- TGI [27]: 42.3 µM
- TGI [28]: > 100 µM
- TGI [29]: > 100 µM
- TGI [30]: > 100 µM
- GI50 [31]: 15.1 µM
- TGI [60]: > 100 µM
- GI50 [32]: > 100 µM
- TGI [32]: > 100 µM
- TGI [33]: > 100 µM
- TGI [34]: > 100 µM
- GI50 [35]: 2.56 µM
- TGI [35]: > 58.1 µM
- TGI [61]: > 31.6 µM
- TGI [62]: > 72.4 µM
- GI50 [36]: 4.49 µM
- TGI [36]: 57.9 µM
- GI50 [63]: 16.9 µM
- TGI [63]: 34.3 µM
- GI50 [38]: 5.88 µM
- TGI [38]: > 100 µM
- TGI [39]: > 100 µM
- TGI [40]: > 100 µM
- TGI [41]: > 100 µM
- GI50 [42]: > 100 µM
- TGI [42]: > 100 µM
- TGI [43]: > 100 µM
- TGI [44]: > 100 µM
- GI50 [45]: 3.52 µM
- TGI [45]: > 100 µM
- TGI [64]: > 100 µM
- TGI [46]: > 100 µM
- TGI [47]: > 100 µM
- GI50 [48]: 3.5 µM
- TGI [48]: > 100 µM
- GI50 [50]: 1.76 µM
- GI50 [52]: 3.04 µM
- TGI [52]: > 100 µM
- GI50 [53]: 87.4 µM
- TGI [53]: > 100 µM
- GI50 [54]: 8.82 µM
- TGI [54]: > 100 µM
- TGI [55]: > 100 µM
- GI50 [56]: 5.35 µM
- TGI [56]: > 100 µM

Reference: PubChem BioAssay (NCI)
